# US6436966B1, “Adenosine A3 receptor antagonists” (Takeda Chemical Ind., Ltd., priority 1997, dated 2002)
# Counter-ions that a name gives are not always drawn.
# Target: T1, human adenosine A3 receptor (Homo sapiens, UniProt P0DMS8)
# T1 construct: expressed in transfected cells; membrane fraction used
# T1 sequence (P0DMS8 1-318): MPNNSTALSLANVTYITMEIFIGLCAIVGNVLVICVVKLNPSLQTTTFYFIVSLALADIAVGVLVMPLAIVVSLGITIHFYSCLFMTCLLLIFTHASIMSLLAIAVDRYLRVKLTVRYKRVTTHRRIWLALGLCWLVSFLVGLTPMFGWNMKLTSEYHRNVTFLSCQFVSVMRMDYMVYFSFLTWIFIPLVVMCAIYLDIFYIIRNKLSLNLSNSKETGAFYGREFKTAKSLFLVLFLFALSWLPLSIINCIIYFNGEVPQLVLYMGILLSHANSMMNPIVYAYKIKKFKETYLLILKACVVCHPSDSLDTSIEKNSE
# Assay: Binding assay with adenosine A3 receptor: [3H]-NECA binding to membranes of A3AR/CHO cells
# Details: 10 nM [3H]-NECA, 100 μg/ml A3AR/CHO cell membranes, 1 hour at room temperature; read-out: IC50 (concentration that inhibits 50% specific binding of [3H]-NECA to the membrane)
# Description: (1) Cloning of Human Adenosine A3 Receptor
# Cloning of the human adenosine A3 receptor gene was carried out by the polymerase chain reaction (PCR) from human brain cDNA. Using 1 ng of brain cDNA (Quick-Clone cDNA, TOYOBO, Osaka) as template, PCR was performed in DNA Thermal Cycler 480 (Perkin Elmer, Foster, Calif.) (reaction conditions: 35 cycles of 1 min at 95° C., 1 min at 66° C., and 2 min at 75° C.) by mixing primers (50 pmol each), 5′-[…]-3′ [Sequence No. 1] and 5′-[…]-3′ [Sequence No. 2], which were designed referring to nucleotide sequence of adenosine A3 receptor gene reported by Salvatore et. al., (Proc. Natl. Acad. Sci. U.S.A., 90:10365-10369, 1993) and TaKaRa LA PCR Kit Ver.2 (TaKaRa Shuzo Co. Ltd., Kyoto) in a Thermal cycler 480 (Parkin Elmer). The PCR product was electrophoresed and 1.0 kb DNA fragment was recovered. The DNA fragment encoding adenosine A3 receptor was cloned using Original TA Cloning Kit (FUNAKOSHI, Tokyo).
# (3) Transfection of Adenosine A3 Receptor Expression Plasmid into CHO (dhfr^−) and the Expression
# CHO (dhfr^−) cells were grown on Ham's F-12 medium (Nihon Selyaku, Tokyo) supplement with 10% fetal bovine serum (Life Tech Oriental; Life Technologies, Inc., Rockville, Md., USA) in a 750 ml Tissue culture flask (Becton Dickinson, Mt. View, Calif.). The growing cells were treated with 0.5 g/l trypsin-0.2 g/l EDTA (Life Technologies, Inc., Rockville, Md., USA) to harvest, washed with PBS (Life Technologies, Inc., Rockville, Md., USA), centrifugated at 1000 rpm for 5 min, and suspended in PBS. […] The cells were incubated in assay buffer I (HBSS (Wako chemicals, Osaka) containing 0.1% BSA, 0.25 mM PMSF, 1 μg/ml pepstatin, and 20 μg/ml leupeptin) to which was added 50 pM ^125I-AB-MECA (Amersham) as ligand, for 1 hour, and washed with assay buffer I. The radioactivity associated with the:.cell was measured in a γ-counter to select A3AR/CHO cells which specifically bind to the ligand. […]
row,Structure (SMILES),IC50 [nM]
1,"COc1ccc(-c2nc(NC(C)=O)sc2-c2cccnc2)cc1 [Reference Example Compound 10, N-[4-(4-Methoxyphenyl)-5-(3-pyridyl)-1,3-thiazol-2-yl]acetamide]",0.27
2,COc1ccc(-c2nc(NC(C)=O)sc2-c2ccncc2)cc1 [13-89],0.55
3,COc1ccc(-c2nc(NC(=O)C(C)C)sc2-c2cccnc2)cc1 [13-92],0.7

# Test system: not given
# Assay: not given
# Details: not given
row,Structure (SMILES),melting point [°C]
1,"CC(=O)Nc1nc(-c2ccncc2)c(-c2ccc(C(C)(C)C)cc2)s1 [Example Compound 5-1, N-[5-[4-(1,1-dimethylethyl)phenyl]-4-(4-pyridyl)-1,3-thiazol-2-yl]acetamide]",245 to 246
2,"CC(C)(C)c1ccc(-c2sc(N)nc2-c2ccncc2)cc1 [Example Compound 4-1, [5-[4-(1,1-dimethylethyl)phenyl]-4-(4-pyridyl)-1,3-thiazol-2-yl]amine]",275 to 277
3,COc1ccc(-c2nc(NC(=O)C(C)C)sc2-c2cccnc2)cc1 [13-92],213 to 216
4,"CC(=O)Nc1nc(-c2ccncc2)c(-c2cc(C)cc(C)c2)s1 [Example Compound 5-2, N-[5-(3,5-dimethylphenyl)-4-(4-pyridyl)-1,3-thiazol-2-yl]acetamide]",304 to 308
5,"Cc1cc(C)cc(-c2sc(N)nc2-c2ccncc2)c1 [Example Compound 4-2, [5-(3,5-dimethylphenyl)-4-(4-pyridyl)-1,3-thiazol-2-yl]amine]",262 to 263
6,COc1ccc(-c2nc(NC(C)=O)sc2-c2ccncc2)cc1 (as salt: HCl) [13-89],275 to 278
